Measurements taken from article doi:10.1101/2024.08.19.608619, “Discovery of potent SARS-CoV-2 nsp3 macrodomain inhibitors uncovers lack of translation to cellular antiviral response” (bioRxiv, 2024).
Values joined by “and” are separate entries in the source; they are usually repeats but may differ in a detail not shown here. Equal entries are not always repeated. Where two headings read alike, the source gives them in different places.

How the values were obtained:
[1] = tested on: SARS-CoV-2, isolate USA-WA1/2020; assay: microbe, parasite or virus in culture; type: cell-based; settings: HeLa-ACE2 SARS-CoV-2 antiviral effect without P-gp inhibitor; for perc_max_measured: maximum measured response of dose series; for perc_min_measured: minimum measured response of dose series; for EC50: read-out: ec50; for EC90: read-out: ec90
PKCα(h) = target: T1, PKCα(h) (Homo sapiens, UniProt P17252); assay: biochemical; set-up: In vitro kinase panel profiling, per cent remaining kinase activity at 10 uM; settings: atp_concentration=45, read-out: % of control remaining
T1 construct: gene PRKCA
From the text: (§1) We derisk potential for off-target activity by profiling the compound in a CEREP panel, a standard secondary pharmacology assessment, as well as a kinase panel to derisk a potential hinge-binding motif in our leads, and a PARP panel to derisk activity against human […]. Reassuringly, the compounds are selective, with the only off-targets being moderate human CHRM2 and KOR receptors activity associated with ASAP-0011198.

CDK6/cyclinD3(h) = CDK6/cyclinD3(h) (Homo sapiens, UniProt Q00534); assay: biochemical; set-up: In vitro kinase panel profiling, per cent remaining kinase activity at 10 uM; settings: atp_concentration=200, read-out: % of control remaining
From the text: as §1

[2] = Hepatic microsomal stability, HLM; type: in vitro ADME, human; settings: In vitro human liver microsomal stability; for perc_remaining_no_cofactor: no cofactor
[3] = Hepatic microsomal stability, MLM; type: in vitro ADME
[4] = Severe acute respiratory syndrome coronavirus 2
[5] = In vitro mouse liver microsomal stability
[6] = In vitro mouse liver microsomal stability; no cofactor
[7] = In vitro mouse liver microsomal stability, no cofactor

CDK6/cyclinD3(h), sequence (Q00534 whole entry): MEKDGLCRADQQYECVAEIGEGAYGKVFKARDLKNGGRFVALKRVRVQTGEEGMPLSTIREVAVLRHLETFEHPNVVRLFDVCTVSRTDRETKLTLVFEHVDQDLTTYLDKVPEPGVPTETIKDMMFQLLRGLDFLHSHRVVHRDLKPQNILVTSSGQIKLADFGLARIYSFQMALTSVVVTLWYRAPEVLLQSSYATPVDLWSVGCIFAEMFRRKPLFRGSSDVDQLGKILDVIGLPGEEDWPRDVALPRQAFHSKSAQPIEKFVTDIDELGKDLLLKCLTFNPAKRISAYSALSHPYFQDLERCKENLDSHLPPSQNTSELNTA
CDK6/cyclinD3(h), sequence (P30281 whole entry partner): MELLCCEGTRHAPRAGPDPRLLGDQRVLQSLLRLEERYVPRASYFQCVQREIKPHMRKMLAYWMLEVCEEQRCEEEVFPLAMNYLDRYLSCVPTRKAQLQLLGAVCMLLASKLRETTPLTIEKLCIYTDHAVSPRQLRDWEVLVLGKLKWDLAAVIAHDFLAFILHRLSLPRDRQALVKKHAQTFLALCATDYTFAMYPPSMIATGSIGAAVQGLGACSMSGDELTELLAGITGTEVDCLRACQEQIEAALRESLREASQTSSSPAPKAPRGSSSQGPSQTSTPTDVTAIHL

SMILES | perc_max_measured [1] | perc_min_measured [1] | perc_remaining [2] | t_half [2] | perc_remaining_no_cofactor [2] | perc_remaining [3, 5] | t_half [3, 5] | perc_remaining_no_cofactor [3, 6] [%] | clint [2] | perc_remaining_no_cofactor [3, 7] [%] | further results
CC(C)C(Nc1ncnc2[nH]ccc12)c1ccc2c(c1)S(=O)(=O)CCC2 (centres unmarked) [ASAP-0008327] | 112.988% | 76.031% | 53.0% | 44.7 min | 99.0% | 10.0% | 12.1 min | 103.0 | – | – | EC50 [1, 4]: > 50 µM; EC90 [1, 4]: > 50 µM; remaining activity at 10 µM (PKCα(h); batch_name=ASAP-0008327-001): 104%; remaining activity at 10 µM (CDK6/cyclinD3(h); batch_name=ASAP-0008327-001): 99%; microsomal CLint ([2]; human, liver microsomes): 37 µL/min/mg; microsomal CLint ([3]; mouse, liver microsomes, In vitro mouse liver microsomal stability): 138 µL/min/mg
COc1ccc([C@@H](Cc2nnn[nH]2)NC(=O)c2ncnc3[nH]ccc23)cc1 [ASAP-0008340] | – | – | 86.0% | 313.8 min | 110.0% | 96.0% | 4400.5 min | – | 5.0 µL/min/mg | 93.0 | remaining activity at 10 µM (PKCα(h); batch_name=ASAP-0008340-001): 95%; remaining activity at 10 µM (CDK6/cyclinD3(h); batch_name=ASAP-0008340-001): 100%
CC(C)[C@@H](Nc1ncnc2[nH]c(-c3cnn(C)c3C#N)cc12)c1ccc2c(n1)OCCO2 [ASAP-0008418] | 143.7% and 101.777% | 4.604% and 4.949% | 34.0% and 36.0% | 28.1 min and 29.7 min | 98.0% and 104.0% | 10.0% and 6.0% | 12.0 min and 9.9 min | 110.0 | 59.0 µL/min/mg and 56.0 µL/min/mg | 101.0 | EC50 [1]: 5.89 µM and 5.04 µM; EC90 [1]: 6.44 µM and 10.5 µM; remaining activity at 10 µM (PKCα(h); batch_name=ASAP-0008418-001): 90%; remaining activity at 10 µM (CDK6/cyclinD3(h); batch_name=ASAP-0008418-001): 105%; clint [3, 5]: 139.0 µL/min/mg and 169.0 µL/min/mg
